Consider 1 compound from patent publication US9738612B2, “Methylacryloyl benzimidazolone derivative and anti-tumour use thereof” (SHANGHAI NATURE STANDARD R&D AND BIOTECH CO., LTD, priority 2014, dated 2017).

One test has as its system A549. The test is described as follows: Sulforhodamine B proliferation. The test is classed as cell-based. To be noted: Homo sapiens, A549, 72 h, SRB, read-out: Inhibitory rate % (A549). On the procedure: (§1) At a certain density cells were seeded in 96-well plates, and adhered overnight. The medium was discarded after incubating cells with compounds to be tested for 72 h, then 100μL/well trichloroacetic acid (TCA) was added to fix cells at 4° C. for 2h. After that the fixing solution was discarded. Cells were gently washed 5 times with distilled water, dried at room temperature. Cells were stained with 4 mg/mL SRB staining solution (100 μL/well) at room temperature for 15min. The staining solution was discarded, and cells were washed five times with 1% acetic acid (HAC) and dried at room temperature. To the plate tris base buffer (10 mM) was added at 150 μL/well and placed at room temperature for 15min. The OD values were measured at 540 nm wavelength in a microplate reader. Inhibitory rate (%)=(OD valuecontrol wells−OD valuedrugs treated wells)/OD valuecontrol wells×100%.
(§2) The results were shown in Table 2, the working concentrations of MK2206 and compounds of FD series were 10 μM. As shown in this Table, PC-3 is a prostate cancer cell line purchased from Cell Resource Center of Shanghai Institutes for Biological Sciences, Chinese Academy of Sciences, A549 is a lung cancer cell line purchased from Cell Resource Center of Shanghai Institutes for Biological Sciences, Chinese Academy of Sciences, and SGC-7901 is a gastric cancer cell line purchased from Cell Resource Center of Shanghai Institutes for Biological Sciences, Chinese Academy of Sciences.

For a further test, the system named is PC-3. The test is described as follows: Sulforhodamine B proliferation. The test is classed as cell-based. The note with it: Homo sapiens, PC-3, 72 h, 72 h, SRB, read-out: Inhibitory rate % (PC-3). How it is done: as §1, §2
The subject of another test is SGC-7901. The test is described as follows: Sulforhodamine B proliferation. The test is classed as cell-based. To be noted: Homo sapiens, SGC-7901, 72 h, SRB, read-out: Inhibitory rate % (SGC-7901). How it is done: as §1, §2
Test [1] has as its system PI3K/Akt/mTOR signaling pathway. Kind of test: Inhibition test to signaling pathway at the cellular level (FIG. 4). The test is classed as cell-based. The note with it: different concentrations, FIG. 4, in words. On the procedure:
A549 cells were seeded at a density of 2×10^5 cells/well into 12-well plates, and adhered overnight. Then the medium was discarded and the plates were washed three times with normal saline. After that, fresh serum-free medium was added to starve cells for 24 hours, compounds to be tested were added to work for 1 h, then IGF-I was added to stimulated for 10 min, followed byadding a lysis buffer on ice to lyse for half an hour. The cell lysates were collected and centrifuged at 20000×g at 4° C. for 10min, then the supernatant was collected. Protein was quantified by MicroBCA protein quantification Assay kit, and the protein concentration was normalized. The supernatant was mixed with the 4×SDS sample buffer [200 mM Tris.Cl (pH 6.8), 400 mM DTT, 8% SDS, 0.4% bromophenol blue, 40% glycerol] and boiled for 15 min. After cooling at room temperature, aliquots were loaded on polyacrylamide gel, and electrophoresed in Tris-glycine electrophoretic buffer (25 mM Tris, 250 mM glycine, 0.1% SDS) at 80-120 V for about 2 h. Proteins were transferred from the gel to a nitrocellulose membrane by a semi-dry method. Transferring conditions: transfer buffer (39 mM glycine, 48 mM Tris base, 0.037% SDS, 20% methanol); transfer current 25 mA; transfer time 2 h. After transfer, Ponceau S staining was used to determine the transfer efficiency and the positions of protein bands on the nitrocellulose membranes. […]

A further test deals with Hela cells. Kind of test: Subcutaneous transplantation of Hela cells into nude mice. The class given is in vivo. On the procedure:
The method used herein for animal experiment was that using the subcutaneous transplantation of Hela cells into nude mice.
Tumor tissues at vigorous growth phase were cut into the size of about 1.5mm^3, and inoculated subcutaneously to the right armpit of nude mice under sterile condition. The diameters of subcutaneous xenograft tumors in nude mice were measured with a vernier caliper. The animals were randomly divided when the tumors grew to the sizes of 100-200 mm^3. FD162 was divided into three groups: 20mg/kg, 10mg/kg and 5mg/kg, with 9 mice per group; rapamycin was 10mg/kg; the model group was given saline. All treatments were intraperitoneally administered once a day for 12 days. Throughout the experiment, tumor diameters and body weights were measured simultaneously twice a week. Tumor volume (TV) was calculated as follows: TV=½×a×b2, where a, b respectively represents the length and width of tumors. […]

On to `C=C(C)n1c(=O)n(C(C)=O)c2ncc(Br)cc21` [FD162], for which the inhibition at 10 µM in the test with A549 was found to be 12.1%; in the test on PC-3, 62.4%; in the test on SGC-7901, 70.2%. The “Down-regulation of PI3K/Akt/mTOR signaling pathway” value in test [1] is listed as “down-regulate PI3K/Akt/mTOR signaling pathway in a dose-dependent manner”. Also, in the test on Hela cells (10 mg/kg intraperitoneally once a day for 12 days, Hela xenograft in nude mice), the Tumor inhibitory rate entry is given as “greater than 50%”. In the test on Hela cells (middle dose (10 mg/kg), i.p., 12 days, FIG. 5, in words), the “Tumor inhibiting effect compared with positive control group (rapamycin 10mg/kg)” value is on record as “better than the positive control group”.
